The IC50 is the concentration at which inhibition is half-maximal. Low readings indicate greater potency in that assay, high ones weaker potency in that assay.

Some results are limits rather than exact numbers.

The target in this assay is NADH-ubiquinone oxidoreductase chain 1 (Bos taurus, UniProt P03887). Nature of the assay: Inhibition Assay. From the text: Inhibition assay using NADH-ubiquinone oxidoreductase (complex I).
Chain of NADH-ubiquinone oxidoreductase chain 1 (P03887 whole entry): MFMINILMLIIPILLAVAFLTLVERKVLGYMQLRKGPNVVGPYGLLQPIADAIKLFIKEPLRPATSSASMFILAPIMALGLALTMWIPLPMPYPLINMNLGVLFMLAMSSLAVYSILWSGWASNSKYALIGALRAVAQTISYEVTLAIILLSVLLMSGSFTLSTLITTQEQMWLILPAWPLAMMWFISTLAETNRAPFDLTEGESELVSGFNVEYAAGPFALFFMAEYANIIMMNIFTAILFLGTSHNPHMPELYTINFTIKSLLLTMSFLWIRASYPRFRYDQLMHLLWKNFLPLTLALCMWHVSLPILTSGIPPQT

`CCCCCC(O)CN1CCN(CC(O)CCCCC)CC1` (centres undefined) [Piperazine derivative, 4]: the half-maximal inhibitory concentration (IC50) is greater than 22000 nM. As to `CCCCCCCCCCC(O)CN1CCN(CC(O)CCCCCCCCCC)CC1` (centres undefined) [Piperazine derivative, 5], the IC50 turned out to be 2.6 nM. The same measure for `CCCCCCCCCCCCCCC(O)CN1CCN(CC(O)CCCCCC)CC1` (centres undefined) [Piperazine derivative, 6]: 26 nM; for `CCCCCCCCCCCCCCCCC(O)CN1CCN(CC(O)CCCC)CC1` (centres undefined) [Piperazine derivative, 7]: 110 nM. The same measure for `O[C@H](CCCCCc1ccccc1)CN1CCN(C[C@H](O)CCCCCc2ccccc2)CC1` [Piperazine derivative, 8]: 12 nM; for `O[C@H](CCCCCCc1ccccc1)CN1CCN(C[C@H](O)CCCCCCc2ccccc2)CC1` [Piperazine derivative, 9]: 1.7 nM; for `O[C@H](CCCCCCCc1ccccc1)CN1CCN(C[C@H](O)CCCCCCCc2ccccc2)CC1` [Piperazine derivative, 10]: 1.2 nM. Consider `O[C@H](CCCCCCCCCc1ccccc1)CN1CCN(C[C@H](O)CCCCCCCCCc2ccccc2)CC1` [Piperazine derivative, 11], for which the IC50 amounted to 5.9 nM. `O[C@@H](CCCCCCc1ccccc1)CN1CCN(C[C@@H](O)CCCCCCc2ccccc2)CC1` [Piperazine derivative, 12]: the concentration for half-maximal inhibition (IC50) came out at 2.3 nM. Take `O[C@H](CCCCCCCc1ccccc1)CN1CCCN(C[C@H](O)CCCCCCCc2ccccc2)CC1` [Piperazine derivative, 13]: half-maximal inhibition (IC50) required 1.7 nM. This IC50 and that of the molecule before are within 1.5-fold of each other. Molecule `O[C@H](CCCCCCCc1ccccc1)CN1C[C@H]2C[C@@H]1CN2C[C@H](O)CCCCCCCc1ccccc1` [Piperazine derivative, 14] had an IC50 of 2.8 nM. On to `CN(C[C@H](O)CCCCCCCc1ccccc1)[C@H]1CCCC[C@@H]1N(C)C[C@H](O)CCCCCCCc1ccccc1` [Piperazine derivative, 15], for which the half-inhibitory concentration (IC50) came to 670 nM. `c1ccc(CCCCCCCN2CCN(CCCCCCCc3ccccc3)CC2)cc1` [Piperazine derivative, 18] returned a concentration for half-maximal inhibition (IC50) of 12 nM.

As to `c1ccc(CCCCCCCCN2CCN(CCCCCCCCc3ccccc3)CC2)cc1` [Piperazine derivative, 19], the half-maximal inhibitory concentration (IC50) is 2.2 nM. The same measure for `c1ccc(CCCCCCCCCN2CCN(CCCCCCCCCc3ccccc3)CC2)cc1` [Piperazine derivative, 20]: 3.6 nM; for `c1ccc(CCCCN2CCN(CCCCc3ccccc3)CC2)cc1` [Piperazine derivative, 21]: 1300 nM. The same measure for `C[N+]1(C[C@H](O)CCCCCc2ccccc2)CCN(C[C@H](O)CCCCCc2ccccc2)CC1` [Piperazine derivative, 22]: 1100 nM; for `C[N+]1(C[C@H](O)CCCCCc2ccccc2)CC[N+](C)(C[C@H](O)CCCCCc2ccccc2)CC1` (some centres undefined) [Piperazine derivative, 23]: 4700 nM; for `N#[N+]Nc1c(F)c(F)c(COCCCCC[C@@H](O)CN2CCN(C[C@H](O)CCCCCOc3ccc(I)cc3)CC2)c(F)c1F` [Piperazine derivative, 24]: 1 nM.

The values above are taken from BindingDB's records for doi:10.1021/bi8010362 (Kyoto University, 2008).
